In one data set the test system is EOL-1 cells. The data set can be described thus: Cell viability/proliferation (cellular ATP, CellTiterGlo) in EOL-1. The conditions noted are these: Homo sapiens, EOL1; EOL-1, text; read-out: EC50 (cytotoxicity, cell viability). The class given is cell-based. In general terms: ATP-based viability assays read luminescence as a measure of living cells.
A further data set has as its system A-204 cells. The data set can be described thus: Cell viability/proliferation (cellular ATP, CellTiterGlo) in A-204. The class given is cell-based. The conditions noted are these: Homo sapiens, A204; A-204 (printed A-402); read-out: EC50 (cytotoxicity, cell viability). As to the method:
A-204 cells (1 × 10^3) were seeded per well of 384-well plates. After overnight incubation, compounds were added to the cells at logarithmic dose series using the HP digital dispenser D300 (Tecan), normalizing for added DMSO. 1 day and 8 days after seeding cellular ATP content was measured using CellTiterGlo (Promega). Measurements after 8 days were divided by the measurement after 1 day (i.e., the T0 plate) to derive fold proliferation. Data were analyzed with GraphPad Prism software to obtain EC50 values.

The nature of data set [1]: Intrinsic clearance in mouse liver microsomes. The class given is in vitro ADME. The settings on record: 0.5 µM compound. On the procedure:
(§1) compounds against known CHI values. The CHI value of test compounds was then calculated according to their retention time.
(§2) Test compounds were prepared as 0.25 mM solutions in 50:50 acetonitrile:water and analysed by reversed-phase HPLC-UV (wavelength 254 nm) using a ACE Excel 3 SuperC18, 3 µm, 50 x 2.1 mm column with a gradient of aqueous phase (10 mM ammonium acetate, pH 7.4) and mobile phase (acetonitrile).
(§3) Intrinsic clearance (Cli) experiments
(§4) Test compound (0.5 µM) was incubated with female CD1 mouse or human (mixed gender) liver microsomes (Xenotech LLCTM; 0.5 mg/mL 50mM potassium phosphate buffer, pH7.4) and the reaction initiated with addition of excess NADPH (8 mg/mL 50 mM potassium phosphate buffer, pH7.4). Immediately, at time zero, then at 3, 6, 9, 15 and 30 minutes an aliquot (50 µL) of the incubation mixture was removed and mixed with acetonitrile (100 µL) to stop the reaction. Internal standard was added to all samples, the samples centrifuged to sediment precipitated protein and the plates then sealed prior to […] analysis using […]
(§5) a Xevo TQ-S Micro (Waters corporation, USA).
(§6) XLfit (IDBS, UK) was used to calculate the exponential decay and consequently the rate constant (k) from the ratio of peak area of test compound to internal standard at each timepoint. The rate of intrinsic clearance (CLi) of each test compound was then calculated using the following calculation: […]

Data set [2] in a line: Intrinsic clearance in human liver microsomes. The class given is in vitro ADME. The conditions noted are these: 0.5 µM compound. As to the method: as §1, §2, §3, §4, §5, §6
In general terms: Microsomes from liver hold many membrane-bound enzymes, among them those of drug oxidation.

In general, EC50 refers to the midpoint of the concentration-response curve.

For `COc1cc(-c2cn(C)c(=O)c3cnccc23)cc(OC)c1CN1CCN(CCCCCOc2cc(-c3scnc3C)ccc2CNC(=O)[C@@H]2C[C@@H](O)CN2C(=O)[C@@H](NC(=O)C2(F)CC2)C(C)(C)C)CC1` [Compound 51, (2S,4R)-N-(2-((5-(4-(2,6-Dimethoxy-4-(2-methyl-1-oxo-1,2-dihydro-2,7-naphthyridin-4-yl)benzyl)piperazin-1-yl)pentyl)oxy)-4-(4-methylthiazol-5-yl)benzyl)-1-((S)-2-(1-fluorocyclopropane-1-carboxamido)-3,3-dimethylbutanoyl)-4-hydroxypyrrolidine-2-carboxamide], the EC50 with EOL-1 cells was 3 nM; in the data set with A-204 cells it was 40 nM.

In the case of `COc1cc(-c2cn(C)c(=O)c3cnccc23)cc(OC)c1CN1CCN(CCCCCOc2cc(-c3scnc3C)ccc2CNC(=O)[C@@H]2C[C@H](O)CN2C(=O)[C@@H](NC(=O)C2(F)CC2)C(C)(C)C)CC1` [cisVZ185], in data set [1], the “Microsomal stability (intrinsic clearance), Mouse” value is 2.4 mL/min/g liver. In addition, in data set [2], the “Microsomal stability (intrinsic clearance), Human” value is on record as 8.1 mL/min/g liver.

(Values after article PMC6348446 (Journal of Medicinal Chemistry, 2018).)
